Earlier results, collected in patent US11173217B2, “Methods and compositions for near infrared fluorescent nanodots with aggregation-induced emission characteristics” (priority 2016, dated 2021).

Details: in DMSO; cited from earlier work

CC1(C)C(/C=C/C=C/C=C/C=C2\N(CCCCS(=O)(=O)[O-])c3ccc4ccccc4c3C2(C)C)=[N+](CCCCS(=O)(=O)[O-])c2ccc3ccccc3c21.[Na+] [IR-125]
quantum yield of reference: 13%
